Measurements: patent US20050203059A1, “Methods and compositions for treatment of ischemia” (priority 2002, published 2005)

Tests used:
[1] = test system: rat hippocampi cells; assay: GSK3 inhibitor protection of rat hippocampi cells from glutamate induced damage (Trypan Blue count); format: cell-based; design: Cells Surviving (%) Without Glutamate (control): concentration or dose not given beside the values; details: rat hippocampal neurons, average of 1 to 4 replications; for Cells Surviving (%) With Glutamate: 200 μM glutamic acid for 5 minutes, counted 20 to 24 hours later; for Cells Surviving (%) Without Glutamate (control): not exposed to glutamic acid
Method: Hippocampi were dissected from embryonic day 18-19 rats. The tissue was collected in Hibernate™ media (Gibco BRL) and minced into 1 mm pieces. The tissue was dissociated using the Papain Dissociation System (Worthington Biochemical Corporation). Following isolation the cells were suspended in serum-free media composed of Neurobasal™ (Gibco BRL), 2% B27 supplement (Gibco BRL), L-glutamine and antibiotics. Cells were plated in 12 well plates tissue culture dishes coated with poly-L-lysine at a concentration of 7.5×10^4 cells per well. Following 10-14 days at 37° C. in 5% CO2, the GSK3 inhibitor compounds set forth below were added. Four to eight hours following compound addition, the conditioned media was removed from the cells and the cultures were stored at 37° C. […] The cultures were then either exposed for 5-minutes at room temperature to 200 μM glutamic acid in the same HBSS, or not exposed to glutamic acid as a control. Following exposure, the cultures were rinsed three times with the buffer and then returned to their original conditioned media containing the GSK3 inhibitor compounds. Twenty to 24 hours following glutamic acid exposure, the cultures were rinsed in HBSS and exposed for 10 minutes to Trypan Blue. This dye is taken up by dead cells. The cultures were rinsed then fixed for 30 minutes in 4% paraformaldehyde. The number of live and dead (blue) large neurons are counted (at least 200 cells from each well) by phase contrast microscopy and photographed, and the percentage of surviving cells was determined. […] The results are shown in the following Table 2 as the average of 1 to 4 replications: […]

[2] = test system: GSK3; assay: Cell-based glycogen synthase assay for GSK3 inhibitory activity (CHO-HIRC cells); details: read-out: EC50 (glycogen synthase activity stimulated to 50% of the maximal level), 20 minutes incubation
Method: Likewise, the ability of GSK3 inhibitor compounds to potentiate insulin signaling by activating glycogen synthase can be readily ascertained using a cell-based glycogen synthase activity assay. This assay employs cells that respond to insulin stimulation by increasing glycogen synthase activity, such as the CHO-HIRC cell line, which overexpresses wild-type insulin receptor (˜100,000 binding sites/cell). […] The assay can be carried out by incubating serum-starved CHO-HIRC cells in the presence of various concentrations of compounds of the present invention in the medium, followed by cell lysis at the end of the incubation period. […] The concentration of candidate GSK3 inhibitor that increased glycogen synthase activity to half of its maximal level (i.e., the EC50) can be calculated by fitting a four parameter sigmoidal curve using routine curve fitting methods that are well known to those having ordinary skill in the art.
CHO-HIRC cells are maintained in 10 cm tissue culture plates in Ham's F12 medium/10% dialyzed fetal bovine serum. Cells from a confluent 10 cm plate are harvested and divided into the 6 wells of a 6-well tissue culture plate to a final volume of 2 ml of medium. The cells are left to grow at 37° C. for 24 hours. The cells are then washed three times in Ham's F12 medium containing no fetal bovine serum, and finally the cells are left for a further 24 hours at 37° C. in 2 ml of the serum-free medium.
At the end of this time, 20 μl of compound dissolved in DMSO is added to each well and incubated at 37° C. After 20 minutes the medium is removed and the cells are washed once in PBS at room temperature and then rapidly frozen in the plates in liquid nitrogen. […] Cells are scraped from the plates and frozen in Eppendorf tubes on dry ice. Lysates are then thawed and refrozen on dry ice.
After rethawing, lysates are spun at 14,000 g for 15 minutes. The supernatants are then removed and stored on ice. […] Reactions are incubated at 30° C. for 30 minutes and then spotted onto a 2 cm square 31ET chromatograph paper (Whatman).
Filters are added to 5 ml of liquid scintillant and counted in a liquid scintillation counter. The percentage of the total glycogen synthase that is active in any lysate is expressed as 100× (cpm minus glucose-6-phosphate)/(cpm plus glucose-6-phosphate). Such values are determined in duplicate for 5 different concentrations of compound and for DMSO alone, and the values are then plotted against the logarithm of the concentration. The concentration of compound which stimulates glycogen synthase activity to 50% of the maximal level is determined by fitting a sigmoidal curve to the plotted data. The maximal level is defined as that level to which glycogen synthase activity tends asymtotically as the concentration of test compound increases substantially beyond the EC50.

[3] = Blood brain barrier penetration / plasma drug levels after intravenous dosing in CD rats; format: in vivo, rat; details: 10 mg/kg intravenously; for Brain (at end of study) drug level: brains isolated at 150 minutes post administration; for AUC / Cmax / Tmax / half-life / Vd / concentration at 0 min / concentration at 7 min / concentration at 20 min / concentration at 40 min / concentration at 70 min / concentration at 100 min / concentration at 150 min: rat, plasma, iv; for Vd: read-out: Vss
Method: GSK3 inhibitor blood brain barrier penetration may generally be measured by administering a GSK3 inhibitor compound formulated in 15% captisol/20 mM sodium citrate to a final dose of 10 mg/kg intravenously through a jugular catheter into 250 g CD rats. At 150 minutes post administration brains from the rats were isolated and fast frozen. GSK3 inhibitor plasma levels in the isolated material were established using standard techniques.

Compound	Cells Surviving (%) With Glutamate [1]	Cells Surviving (%) Without Glutamate (control) [1]	EC50 [2]	further results
Nc1nc(NCCNc2ncc(-c3ncc[nH]3)c(-c3ccc(F)cc3Br)n2)ccc1[N+](=O)[O-] [Compound S]	50%	95%	220 nM	–
Nc1nc(NCCNc2ncc(NC(=O)NCCN3CCOCC3)c(-c3ccc(Cl)cc3Cl)n2)ccc1[N+](=O)[O-] [D]	60%	96%	3000 nM	–
COCCNC(=O)Cn1c(=O)n(C2CCN(C(=O)N3CCc4ccccc4C3)CC2)c2ccccc21 [E]	73%	88%	–	–
FC(F)(F)c1ccc(NCCNc2ccc(-c3ncc[nH]3)c(-c3ccc(Cl)cc3Cl)n2)nc1 [F]	51%	96%	–	–
Cc1ccc(-c2nc(NCCNc3ccc([N+](=O)[O-])c(N)n3)ncc2-c2ncc[nH]2)c(Br)c1 [G]	65%	94%	53 nM	CL [3]: 52 [ml/min]/kg; Brain (at end of study) drug level [3]: <LOQ; AUC [3]: 3180 ng·h/mL; Cmax [3]: 4600 ng/mL; Tmax [3]: ~0 h; half-life [3]: 31 min; Vd [3]: 2.3 L/kg; concentration at 0 min [3]: < 20 ng/mL; concentration at 7 min [3]: 4050 ng/mL; concentration at 20 min [3]: 3200 ng/mL; concentration at 40 min [3]: 1330 ng/mL; concentration at 70 min [3]: 796 ng/mL; concentration at 100 min [3]: 414 ng/mL; concentration at 150 min [3]: 113 ng/mL
O=[N+]([O-])c1ccc(NCCNc2ccc(-c3ncc[nH]3)c(-c3ccc(Cl)cc3Cl)n2)nc1 [H]	67%	94%	121 nM	–
N#Cc1ccc(NCCNc2ncc(-c3ccncc3)c(-c3ccc(Cl)cc3Cl)n2)nc1 [I]	56%	94%	184 nM	CL [3]: 114 [ml/min]/kg; Brain (at end of study) drug level [3]: <LOQ; AUC [3]: 145 ng·h/mL; Cmax [3]: 1200 ng/mL; Tmax [3]: ~0 h; half-life [3]: 42 min; Vd [3]: 6.8 L/kg; concentration at 0 min [3]: < 20 ng/mL; concentration at 7 min [3]: 1190 ng/mL; concentration at 20 min [3]: 1160 ng/mL; concentration at 40 min [3]: 614 ng/mL; concentration at 70 min [3]: 440 ng/mL; concentration at 100 min [3]: 358 ng/mL; concentration at 150 min [3]: 106 ng/mL
O=[N+]([O-])c1ccc(NCCNc2ncc(-c3ncc[nH]3)c(-c3ccc(Cl)cc3Cl)n2)nc1 [J]	57%	95%	375 nM	–
Nc1nc(NCCNc2ncc(CO)c(-c3ccc(Cl)cc3Cl)n2)ccc1[N+](=O)[O-] [K]	73%	86%	147 nM	–
Nc1nc(NCCNc2ncc(-c3ncc[nH]3)c(-c3ccc(Cl)cc3Cl)n2)ccc1[N+](=O)[O-] [L]	59%	90%	257 nM	–
Nc1nc(NCCNc2ncc(N3C(=O)CCC3=O)c(-c3ccc(Cl)cc3Cl)n2)ccc1[N+](=O)[O-] [M]	61%	87%	85 nM	–
CN1CCN(c2cnc(NCCNc3ccc([N+](=O)[O-])c(N)n3)nc2-c2ccc(Cl)cc2Cl)CC1 [N]	67%	91%	53.4 nM	–
Nc1nc(NCCNc2ncc(-n3cc(Cl)ccc3=O)c(-c3ccc(Cl)cc3Cl)n2)ccc1[N+](=O)[O-] [O]	61%	94%	132 nM	–
CNCC(=O)Nc1cnc(NCCNc2ccc([N+](=O)[O-])c(N)n2)nc1-c1ccc(Cl)cc1Cl [P]	55%	91%	701 nM	–
CN(CCNc1ccc([N+](=O)[O-])c(N)n1)c1ncc(-c2ncc[nH]2)c(-c2ccc(Cl)cc2Cl)n1 [Q]	67%	95%	17 nM	–
Nc1nc(NCCNc2ncc(-n3ccccc3=O)c(-c3ccc(Cl)cc3Cl)n2)ccc1[N+](=O)[O-] [R]	61%	92%	14 nM	–
N#Cc1ccc(-c2nc(NCCNc3ccc([N+](=O)[O-])cn3)ncc2-n2ccnc2)cc1 [T]	50%	95%	1280 nM	–
Nc1nc(NCCNc2ncc(N3CCOCC3)c(-c3ccc(Cl)cc3Cl)n2)ccc1[N+](=O)[O-] [U]	62%	93%	73.5 nM	–
FC(F)(F)c1ccc(NCCNc2ncc(-c3ncc[nH]3)c(-c3ccc(Cl)cc3Cl)n2)nc1 [V]	49%	94%	1240 nM	–
Nc1nc(NCCNc2ncc(-n3cccn3)c(-c3ccc(Cl)cc3Cl)n2)ccc1[N+](=O)[O-] [W]	61%	94%	99.8 nM	–
Nc1nc(NCCNc2ncc(-c3ncc[nH]3)c(-c3ccc(F)cc3Cl)n2)ccc1[N+](=O)[O-] [X]	50%	93%	424 nM	–
Nc1nc(NCCNc2ncc(-n3ccnc3)c(-c3ccc(Cl)cc3Cl)n2)ccc1[N+](=O)[O-] [Y]	61%	94%	75 nM	–
IGF1: IGF1, used as a control in the rat hippocampi cell survival test	51%	93%	–	–
